Where a name gives a salt, the structure may show the parent alone. Read-outs that look alike come from different tables or passages of the source.
Columns and labels:
[1] = biological target: purified human plasma kallikrein (Homo sapiens (Human), UniProt P03952); experiment: Plasma kallikrein enzyme inhibition assay (chromogenic substrate S-2302); assay type: biochemical
[2] = biological target: purified human Factor XIa (Homo sapiens (Human), UniProt P03951); experiment: Factor XIa enzyme inhibition assay (chromogenic substrate S-2366)
Chain of purified human Factor XIa (P03951 388-625): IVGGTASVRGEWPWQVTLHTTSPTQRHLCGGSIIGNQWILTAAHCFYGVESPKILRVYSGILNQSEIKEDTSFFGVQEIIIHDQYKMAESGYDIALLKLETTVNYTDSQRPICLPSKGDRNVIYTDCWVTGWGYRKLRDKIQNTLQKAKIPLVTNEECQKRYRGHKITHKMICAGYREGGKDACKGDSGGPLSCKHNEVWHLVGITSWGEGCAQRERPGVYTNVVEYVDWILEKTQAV
Chain of purified human Factor XIa (P03951 19-387 partner): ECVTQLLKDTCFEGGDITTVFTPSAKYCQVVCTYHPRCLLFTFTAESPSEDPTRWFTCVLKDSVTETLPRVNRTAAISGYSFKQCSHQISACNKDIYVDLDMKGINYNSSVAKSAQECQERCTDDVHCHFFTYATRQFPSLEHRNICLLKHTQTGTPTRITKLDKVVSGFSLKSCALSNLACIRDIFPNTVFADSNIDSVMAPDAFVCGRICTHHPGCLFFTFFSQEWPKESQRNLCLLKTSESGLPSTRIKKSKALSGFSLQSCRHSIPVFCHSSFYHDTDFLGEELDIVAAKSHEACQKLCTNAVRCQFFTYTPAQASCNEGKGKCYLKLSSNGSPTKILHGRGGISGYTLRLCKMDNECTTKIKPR

[3] = measured at 25° C. (no asterisk)
[4] = read-out: Factor XIa Ki, measured at 25° C.

Chain of purified human plasma kallikrein (P03952 391-638): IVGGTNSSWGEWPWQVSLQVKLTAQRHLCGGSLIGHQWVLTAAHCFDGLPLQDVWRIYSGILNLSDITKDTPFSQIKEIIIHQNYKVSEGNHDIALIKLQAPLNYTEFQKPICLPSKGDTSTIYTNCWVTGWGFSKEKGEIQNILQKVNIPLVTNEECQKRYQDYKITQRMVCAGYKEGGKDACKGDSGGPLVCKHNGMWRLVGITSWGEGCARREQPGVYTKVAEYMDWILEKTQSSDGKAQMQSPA
Chain of purified human plasma kallikrein (P03952 20-390 partner): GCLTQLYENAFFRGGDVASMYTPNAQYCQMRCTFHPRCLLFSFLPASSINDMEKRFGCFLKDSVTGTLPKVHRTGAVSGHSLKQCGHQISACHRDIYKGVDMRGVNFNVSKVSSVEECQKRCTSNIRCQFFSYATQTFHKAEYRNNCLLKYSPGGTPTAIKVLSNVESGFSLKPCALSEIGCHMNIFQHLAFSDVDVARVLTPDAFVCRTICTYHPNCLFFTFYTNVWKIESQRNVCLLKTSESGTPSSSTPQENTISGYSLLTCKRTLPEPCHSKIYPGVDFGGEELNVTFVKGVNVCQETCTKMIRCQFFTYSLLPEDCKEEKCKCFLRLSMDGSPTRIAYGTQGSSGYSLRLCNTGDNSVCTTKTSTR

| Compound | Ki [1, 3] [nM] | further results |
| --- | --- | --- |
| 4-(2-(3-Amino-1-(3-chloro-2-fluorophenyl)-1H-pyrazole-4-carbonyl)-5-(4-(2-(dimethylamino)ethoxy)piperidin-1-yl)-1,2,3,4-tetrahydroisoquinoline-1-carboxamido)benzoic acid, 2 TFA salt [Example 319] | 6.41 | Ki [2, 4]: < 5 nM |
| 4-(2-(5-amino-1-(3-chloro- 2-fluorophenyl)-1H- pyrazole-4-carbonyl)-5-(4- (pyrrolidin-1- yl)piperidin-1-yl)-1,2,3,4- tetrahydroisoquinoline-1- carboxamido)benzoic acid, 3TFA salt [Example 213] | 12.2 | Ki ([2]; read-out: Factor XIa Ki): < 5 nM |
| 4-(2-(5-amino-1-(3-chloro- 2-fluorophenyl)-1H- pyrazole-4-carbonyl)-5-(4- methylpiperazin-1- yl)-1,2,3,4- tetrahydroisoquinoline-1- carboxamido)benzoic acid, 2 TFA salt [Example 212] | 2.89 | Ki [2, 4]: 20.9 nM |
| CO[C@@H]1CCN(c2cccc3c2CCN(C(=O)c2cn(-c4cccc(Cl)c4F)nn2)C3C(=O)Nc2ccc(C(=O)O)cc2)C1 (mixture of isomers) [Example 84, 4-(2-(1-(3-chloro-2-fluorophenyl)-1H-1,2,3-triazole-4-carbonyl)-5-((R)-3-methoxypyrrolidin-1-yl)-1,2,3,4-tetrahydroisoquinoline-1-carboxamido)benzoic acid, TFA salt] | 15.8 | Ki [2, 4]: < 5 nM |
| COC1CCN(c2cccc3c2CCN(C(=O)c2cnn(-c4cccc(Cl)c4F)c2)C3C(=O)Nc2ccc(C(=O)O)cc2)CC1 (racemic) [Example 252, 4-(2-(1-(3-chloro-2-fluorophenyl)-1H-pyrazole-4-carbonyl)-5-(4-methoxypiperidin-1-yl)-1,2,3,4-tetrahydroisoquinoline-1-carboxamido)benzoic acid, TFA salt] | 42.8 | Ki [2]: < 5 nM |
| COC1CCN(c2cccc3c2CCN(C(=O)c2nnn(-c4cccc(Cl)c4F)c2C)C3C(=O)Nc2ccc(C(=O)O)cc2)CC1 (racemic) [Example 253, 4-(2-(1-(3-chloro-2-fluorophenyl)-5-methyl-1H-1,2,3-triazole-4-cabonyl)-5-(4-methoxypiperidin-1-yl)-1,2,3,4-tetrahydroisoquinoline-1-carboxamido)benzoic acid, TFA salt] | 156 | Ki [2]: 11.1 nM |
| COC1CCN(c2cccc3c2CCN(C(=O)c2cn(-c4c(F)ccc(Cl)c4F)nn2)C3C(=O)Nc2ccc(C(=O)O)cc2)CC1 (racemic) [Example 254, 4-(2-(1-(3-chloro-2,6-difluorophenyl)-1H-1,2,3-triazole-4-carbonyl)-5-(4-methoxypiperidin-1-yl)-1,2,3,4-tetrahydroisoquinoline-1-carboxamido)benzoic acid, TFA salt] | 26.7 | Ki [2]: < 5 nM |
| COC1CCN(c2cccc3c2CCN(C(=O)c2cnn(-c4cccc(Cl)c4F)c2C)C3C(=O)Nc2ccc(C(=O)O)cc2)CC1 (racemic) [Example 259, 4-(2-(1-(3-chloro-2-fluorophenyl)-5-methyl-1H-pyrazole-4-carbonyl)-5-(4-methoxypiperidin-1-yl)-1,2,3,4-tetrahydroisoquinoline-1-carboxamido)benzoic acid, TFA salt] | 77.9 | Ki [2]: < 5 nM |
| COC1CCN(c2cccc3c2CCN(C(=O)c2cn(-c4cccc(Cl)c4F)nc2O)C3C(=O)Nc2ccc(C(=O)O)cc2)CC1 (racemic) [Example 264, 4-(2-(1-(3-chloro-2-fluorophenyl)-3-hydroxy-1H-pyrazole-4-carbonyl)-5-(4-methoxypiperidin-1-yl)-1,2,3,4-tetrahydroisoquinoline-1-carboxamido)benzoic acid, TFA salt] | 11.1 | Ki [2]: < 5 nM |
| O=C(O)c1ccc(NC(=O)[C@H]2c3cccc(-c4cncc(F)c4)c3CCN2C(=O)[C@H]2CC(c3cccc(Cl)c3F)=NO2)cc1 [Example 22, 4-((R)-2-((R)-3-(3-Chloro-2-fluorophenyl)-4,5-dihydroisoxazole-5-carbonyl)-5-(5-fluoropyridin-3-yl)-1,2,3,4-tetrahydroisoquinoline-1-carboxamido)benzoic acid, TFA salt] |  | Ki ([1]; measured at 37° C. (*)): 869 nM |
| COCCOc1cccc2c1CCN(C(=O)[C@H]1CC(c3cccc(Cl)c3F)=NO1)[C@@H]2C(=O)Nc1ccc(C(=O)O)cc1 [Example 114, 4-((S)-2-((R)-3-(3-Chloro-2-fluorophenyl)-4,5-dihydroisoxazole-5-carbonyl)-5-(2-methoxyethoxy)-1,2,3,4-tetrahydroisoquinoline-1-carboxamido)benzoic Acid] | 15.2 |  |
| COCCOc1cccc2c1CCN(C(=O)[C@H]1CC(c3cccc(Cl)c3F)=NO1)[C@H]2C(=O)Nc1ccc(C(=O)O)cc1 [Example 115, 4-((R)-2-((R)-3-(3-Chloro-2-fluorophenyl)-4,5-dihydroisoxazole-5-carbonyl)-5-(2-methoxyethoxy)-1,2,3,4-tetrahydroisoquinoline-1-carboxamido)benzoic acid] | 61.3 |  |
| COC1CCN(c2cccc3c2CCN(C(=O)C2CCN(c4cccc(Cl)c4)C2=O)C3C(=O)Nc2ccc(C(=O)O)cc2)CC1 (stereo not drawn) [Example 151, 4-(2-(1-(3-chlorophenyl)-2-oxopyrrolidine-3-carbonyl)-5-(4-methoxypiperidin-1-yl)-1,2,3,4-tetrahydroisoquinoline-1-carboxamido)benzoic acid, TFA salt] | 816 |  |
| CN1CCN(c2cccc3c2CCN(C(=O)C2CC(c4cccc(Cl)c4F)=NO2)C3C(=O)Nc2ccc(C(=O)O)cc2)CC1 (stereo not drawn) [Example 202, 4-(2-(3-(3-chloro-2-fluorophenyl)-4,5-dihydroisoxazole-5-carbonyl)-5-(4-methylpiperazin-1-yl)-1,2,3,4-tetrahydroisoquinoline-1-carboxamido)benzoic acid, 2 TFA salt] | 1.11 |  |
| O=C(O)c1ccc(NC(=O)[C@@H]2c3cccc(N4CCC(C5COC5)CC4)c3CCN2C(=O)[C@H]2CC(c3cccc(Cl)c3F)=NO2)cc1 [Example 234, 4-((S)-2-((R)-3-(3-Chloro-2-fluorophenyl)-4,5-dihydroisoxazole-5-carbonyl)-5-(4-(oxetan-3-yl)piperidin-1-yl)-1,2,3,4-tetrahydroisoquinoline-1-carboxamido)benzoic acid, TFA salt] |  | Ki ([1]; measured at 37° C. (*)): 26.9 nM |
| O=C(O)c1ccc(NC(=O)[C@@H]2c3cccc(-n4cnnc4)c3CCN2C(=O)[C@H]2CC(c3cccc(Cl)c3F)=NO2)cc1 [Example 247, 4-((S)-2-((R)-3-(3-Chloro-2-fluorophenyl)-4,5-dihydroisoxazole-5-carbonyl)-5-(4H-1,2,4-triazol-4-yl)-1,2,3,4-tetrahydroisoquinoline-1-carboxamido)benzoic acid, TFA salt] |  | Ki ([1]; measured at 37° C. (*)): 9.2 nM |
| O=C(O)c1ccc(NC(=O)[C@H]2c3cccc(-n4cnnc4)c3CCN2C(=O)[C@H]2CC(c3cccc(Cl)c3F)=NO2)cc1 [Example 248, 4-((R)-2-((R)-3-(3-Chloro-2-fluorophenyl)-4,5-dihydroisoxazole-5-carbonyl)-5-(4H-1,2,4-triazol-4-yl)-1,2,3,4-tetrahydroisoquinoline-1-carboxamido)benzoic acid, TFA salt] |  | Ki ([1]; measured at 37° C. (*)): 83.2 nM |
| O=C(O)c1ccc(NC(=O)[C@@H]2c3cccc(N4CCCCC4)c3CCN2C(=O)[C@H]2CC(c3cccc(Cl)c3F)=NO2)cc1 [Example 291, 4-((S)-2-((R)-3-(3-chloro-2-fluorophenyl)-4,5-dihydroisoxazole-5-carbonyl)-5-(piperidin-1-yl)-1,2,3,4-tetrahydroisoquinoline-1-carboxamido)benzoic acid, TFA salt] | 15.2 |  |
| O=C(O)c1ccc(NC(=O)[C@H]2c3cccc(N4CCCCC4)c3CCN2C(=O)[C@H]2CC(c3cccc(Cl)c3F)=NO2)cc1 [Example 292, 4-((R)-2-((R)-3-(3-chloro-2-fluorophenyl)-4,5-dihydroisoxazole-5-carbonyl)-5-(piperidin-1-yl)-1,2,3,4-tetrahydroisoquinoline-1-carboxamide)benzoic acid, TFA salt] | 758 |  |
| COc1cccc2c1CCN(C(=O)[C@H]1CC(c3cccc(Cl)c3F)=NO1)[C@@H]2C(=O)Nc1ccc(C(=O)O)cc1 [Example 293, 4-((S)-2-((R)-3-(3-chloro-2-fluorophenyl)-4,5-dihydroisoxazole-5-carbonyl)-5-methoxy-1,2,3,4-tetrahydroisoquinoline-1-carboxamide)benzoic acid] | 3.24 |  |
| COc1cccc2c1CCN(C(=O)[C@H]1CC(c3cccc(Cl)c3F)=NO1)[C@H]2C(=O)Nc1ccc(C(=O)O)cc1 [Example 294, 4-((R)-2-((R)-3-(3-chloro-2-fluorophenyl)-4,5-dihydroisoxazole-5-carbonyl)-5-methoxy-1,2,3,4-tetrahydroisoquinoline-1-carboxamido)benzoic acid] | 111 |  |
| O=C(O)c1ccc(NC(=O)[C@@H]2c3cccc(N4CCOCC4)c3CCN2C(=O)[C@H]2CC(c3cccc(Cl)c3F)=NO2)cc1 [Example 295, 4-((S)-2-((R)-3-(3-chloro-2-fluorophenyl)-4,5-dihydroisoxazole-5-carbonyl)-5-morpholino-1,2,3,4-tetrahydroisoquinoline-1-carboxamido)benzoic acid, TFA salt] | 2.44 |  |
| CC(C)c1nnc2n1CCN(c1cccc3c1CCN(C(=O)[C@@H]1CC(c4cccc(Cl)c4F)=NO1)[C@@H]3C(=O)Nc1ccc(C(=O)O)cc1)C2 [Example 338, 4-((S)-2-((S)-3-(3-Chloro-2-fluorophenyl)-4,5-dihydroisoxazole-5-carbonyl)-5-(3-isopropyl-5,6-dihydro-[1,2,4]triazolo[4,3-a]pyrazin-7(8H)-yl)-1,2,3,4-tetrahydroisoquinoline-1-carboxamido)benzoic acid, TFA salt] |  | Ki ([1]; measured at 37° C. (*)): 251 nM |
| CC(C)c1nnc2n1CCN(c1cccc3c1CCN(C(=O)[C@@H]1CC(c4cccc(Cl)c4F)=NO1)[C@H]3C(=O)Nc1ccc(C(=O)O)cc1)C2 [Example 339, 4-((R)-2-((S)-3-(3-Chloro-2-fluorophenyl)-4,5-dihydroisoxazole-5-carbonyl)-5-(3-isopropyl-5,6-dihydro-[1,2,4]triazolo[4,3-a]pyrazin-7(8H)-yl)-1,2,3,4-tetrahydroisoquinoline-1-carboxamido)benzoic acid, TFA salt] |  | Ki ([1]; measured at 37° C. (*)): 84.6 nM |

Source: patent US9738655B2, “Tetrahydroisoquinolines containing substituted azoles as factor XIa inhibitors” (BRISTOL-MYERS SQUIBB COMPANY, priority 2013, dated 2017)
